Data from patent US4521340A, “Pharmaceutically acceptable salts of the antibiotic C-19393 E5” (priority 1980, dated 1985).
“Also recorded” adds a separate entry of the source. Structures can show the parent of a compound that is named as a salt. Where two headings read alike, the source gives them in different places.

Key:
[1] = Solubility; format: physicochemical
[2] = system: Pseudomonas aeruginosa IFO 3080; assay: Antimicrobial spectrum, MIC (Bouillon agar); format: cell-based; conditions: IFO3080, read-out: Minimum Inhibitory Concentration
Excerpt: (§1) The biological properties of C-19393 E5 are as follows.

[3] = system: Comamonas terrigena IFO 13299; assay: Antimicrobial spectrum, MIC (Bouillon agar); format: cell-based; conditions: IFO13299, read-out: Minimum Inhibitory Concentration
Excerpt: as §1

[4] = system: Proteus mirabilis ATCC 21100; assay: Antimicrobial spectrum, MIC (Bouillon agar); format: cell-based; conditions: ATCC21100, read-out: Minimum Inhibitory Concentration
Excerpt: as §1

[5] = system: Staphylococcus aureus 209P; assay: Antimicrobial spectrum, MIC (Bouillon agar); format: cell-based; conditions: read-out: Minimum Inhibitory Concentration
Excerpt: as §1

[6] = system: Sarcina lutea IFO 3232; assay: Antimicrobial spectrum, MIC (Bouillon agar); format: cell-based; conditions: Micrococcus luteus, IFO3232, read-out: Minimum Inhibitory Concentration
Excerpt: as §1

[7] = system: Alcaligenes faecalis IFO 13111; assay: Antimicrobial spectrum, MIC (Bouillon agar); format: cell-based; conditions: IFO13111, read-out: Minimum Inhibitory Concentration
Excerpt: as §1

[8] = system: Proteus vulgaris IFO 3988; assay: Antimicrobial spectrum, MIC (Bouillon agar); format: cell-based; conditions: IFO3988, read-out: Minimum Inhibitory Concentration
Excerpt: as §1

[9] = system: Escherichia coli NIHJ; assay: Antimicrobial spectrum, MIC (Bouillon agar); format: cell-based; conditions: read-out: Minimum Inhibitory Concentration
Excerpt: as §1

[10] = system: Serratia marcescens IFO 12648; assay: Antimicrobial spectrum, MIC (Bouillon agar); format: cell-based; conditions: IFO12648, read-out: Minimum Inhibitory Concentration
Excerpt: as §1

[11] = system: Salmonella typhimurium IFO 12529; assay: Antimicrobial spectrum, MIC (Bouillon agar); format: cell-based; conditions: Salmonella enterica, read-out: Minimum Inhibitory Concentration
Excerpt: as §1

[12] = system: Bacillus subtilis PCI 219; assay: Antimicrobial spectrum, MIC (Bouillon agar); format: cell-based; conditions: PCI219, read-out: Minimum Inhibitory Concentration
Excerpt: as §1

[13] = system: Klebsiella pneumoniae IFO 3317; assay: Antimicrobial spectrum, MIC (Bouillon agar); format: cell-based; conditions: IFO3317, read-out: Minimum Inhibitory Concentration
Excerpt: as §1

[14] = Stability of aqueous solution; format: physicochemical; conditions: neutral pH region
[15] = system: gram-positive and gram-negative bacteria; assay: Antibacterial activity (summary in words); format: cell-based
Excerpt: as §1

[16] = system: K-4 strain; assay: Growth on minimal medium containing compound (Table 4); format: cell-based, Streptomyces griseus subsp. cryophilus; conditions: 28° C., 4 days
Method: (§2) The 20 plates were selected from among those cultivated with about 20-100 colonies per plate. These colonies were inoculated by the replicate method onto a minimal medium (composition: 10 g of glycerol, 1 g of L-asparagine,1 g of dipotassium phosphate, 0.2 g of magnesium sulfate, 20 g of agar and distilled water; pH 7.1) and a screening medium A (the minimal medium supplemented with 50 mg/l of L-cysteine) and each of the media was incubated at 28° C. for 3 days. Another 20 plates were selected from among those cultivated with about 20-100 colonies per plate. These colonies were replicated on a minimal medium (the same as said composition) and a screening medium B (the minimal medium supplemented with 50 mg/l of sodium thiosulfate) and each of the media was incubated at 28° C. for 3 days. The strains thus obtained were incubated on minimal media containing sodium thiosulfate, L-cysteine or L-methionine in various concentrations at 28° C. for 4 days.

[17] = system: K-101 strain; assay: as above; format: cell-based, Streptomyces griseus subsp. cryophilus; conditions: 28° C., 4 days
Method: as §2

[18] = system: C-19393 strain; assay: as above; format: cell-based, Streptomyces griseus subsp. cryophilus; design: key to the marks not given beside the values; conditions: 28° C., 4 days
Method: as §2

[19] = system: C-19393 strain; assay: Growth on minimal medium containing compound (Table 5); format: cell-based, Streptomyces griseus subsp. cryophilus; conditions: 28° C., 4 days
Method: (§3) SR-135 and C-19393 strains were incubated on a minimal medium containing sodium thiosulfate, L-cysteine or L-methionine at 28° C. for 4 days.

[20] = system: SR-135 strain; assay: as above; format: cell-based, Streptomyces griseus subsp. cryophilus; conditions: 28° C., 4 days
Method: as §3

[21] = system: SR-135 strain; conditions: 28° C., 7 days
[22] = system: C-19393 strain; conditions: 28° C., 7 days
[23] = system: C-19393 strain; assay: microbe, parasite or virus in culture; conditions: Streptomyces griseus, 168 h, read-out: Concentration at which growth was inhibited

Compound: CC(=O)N/C=C/[S+]([O-])C1=C(C(=O)O)N2C(=O)[C@@H]([C@H](C)O)[C@H]2C1 (stereo partly drawn) [C-19393 E5 sodium salt]
- Solubility ([1]; in acetone): insoluble
- Solubility ([1]; in benzene): insoluble
- Solubility ([1]; in ethyl acetate): insoluble
- Solubility ([1]; in water): Readily soluble
- MIC [2]: 6.25 µg/mL
- MIC [3]: 0.78 µg/mL
- MIC [4]: 3.13 µg/mL
- MIC [5]: 0.78 µg/mL
- MIC [6]: 0.2 µg/mL
- MIC [7]: 1.56 µg/mL
- MIC [8]: 1.56 µg/mL
- MIC [9]: 0.78 µg/mL
- MIC [10]: 6.25 µg/mL
- MIC [11]: 0.78 µg/mL
- MIC [12]: 0.78 µg/mL
- MIC [13]: 6.25 µg/mL

Compound: CC(=O)N/C=C/[S+]([O-])C1=C(C(=O)O)N2C(=O)[C@@H]([C@H](C)O)[C@H]2C1 (stereo partly drawn) [C-19393 E5]
- Stability of aqueous solution [14]: stable in the neutral pH region
- Antibacterial/antimicrobial activity [15]: highly active against both gram-positive and gram-negative bacteria; also recorded: strong antimicrobial activity against gram-positive and gram-negative bacteria

Compound: N[C@@H](CS)C(=O)O [L-Cysteine, L-cysteine]
- Growth ([16]; 3.125 mg/ml (so in the source)): +
- Growth ([16]; 6.25 mg/ml (so in the source)): +
- Growth ([16]; 12.5 mg/ml (so in the source)): ++
- Growth ([16]; 25 mg/ml (so in the source)): +++
- Growth ([16]; 50 mg/ml (so in the source)): +++
- Growth ([16]; 100 mg/ml (so in the source)): +++
- Growth ([17]; 3.125 mg/l): +
- Growth ([17]; 6.25 mg/l): ++
- Growth ([17]; 12.5 mg/l): +++
- Growth ([17]; 25 mg/l): +++
- Growth ([17]; 50 mg/l): +++
- Growth ([17]; 100 mg/l): +++
- Growth ([18]; 3.125 mg/ml (so in the source)): +++
- Growth ([18]; 6.25 mg/ml (so in the source)): +++
- Growth ([18]; 12.5 mg/ml (so in the source)): +++
- Growth ([18]; 25 mg/ml (so in the source)): +++
- Growth ([18]; 50 mg/ml (so in the source)): +++
- Growth ([18]; 100 mg/ml (so in the source)): +++
- Growth ([19]; 3.125 mg/l): +++
- Growth ([19]; 6.25 mg/l): +++
- Growth ([19]; 12.5 mg/l): +++
- Growth ([19]; 25 mg/l): +++
- Growth ([19]; 50 mg/l): +++
- Growth ([19]; 100 mg/l): +++
- Growth ([20]; 3.125 mg/l): ++
- Growth ([20]; 6.25 mg/l): +++
- Growth ([20]; 12.5 mg/l): +++
- Growth ([20]; 25 mg/l): +++
- Growth ([20]; 50 mg/l): +++
- Growth ([20]; 100 mg/l): +++

Compound: CSCC[C@H](N)C(=O)O [L-Methionine, L-methionine]
- Growth ([16]; 3.125 mg/ml (so in the source)): +
- Growth ([16]; 6.25 mg/ml (so in the source)): ++
- Growth ([16]; 12.5 mg/ml (so in the source)): ++
- Growth ([16]; 25 mg/ml (so in the source)): +++
- Growth ([16]; 50 mg/ml (so in the source)): +++
- Growth ([16]; 100 mg/ml (so in the source)): +++
- Growth ([17]; 3.125 mg/l): +
- Growth ([17]; 6.25 mg/l): ++
- Growth ([17]; 12.5 mg/l): +++
- Growth ([17]; 25 mg/l): +++
- Growth ([17]; 50 mg/l): +++
- Growth ([17]; 100 mg/l): +++
- Growth ([18]; 3.125 mg/ml (so in the source)): +++
- Growth ([18]; 6.25 mg/ml (so in the source)): +++
- Growth ([18]; 12.5 mg/ml (so in the source)): +++
- Growth ([18]; 25 mg/ml (so in the source)): +++
- Growth ([18]; 50 mg/ml (so in the source)): +++
- Growth ([18]; 100 mg/ml (so in the source)): +++
- Growth ([19]; 3.125 mg/l): +++
- Growth ([19]; 6.25 mg/l): +++
- Growth ([19]; 12.5 mg/l): +++
- Growth ([19]; 25 mg/l): +++
- Growth ([19]; 50 mg/l): ++ +
- Growth ([19]; 100 mg/l): +++
- Growth ([20]; 3.125 mg/l): ++
- Growth ([20]; 6.25 mg/l): +++
- Growth ([20]; 12.5 mg/l): +++
- Growth ([20]; 25 mg/l): +++
- Growth ([20]; 50 mg/l): +++
- Growth ([20]; 100 mg/l): +++

Compound: O=[Se](=O)(O)O [Sodium selenate, sodium selenate]
- Growth ([21]; 62.5 mg/l): ++
- Growth ([21]; 125 mg/l): ++
- Growth ([21]; 250 mg/l): ++
- Growth ([21]; 500 mg/l): ++
- Growth ([21]; 1000 mg/l): ++
- Growth ([21]; 2000 mg/l): +
- Growth ([22]; 62.5 mg/l): +++
- Growth ([22]; 125 mg/l): ++
- Growth ([22]; 250 mg/l): ±
- Growth ([22]; 1000 mg/l): -
- Growth ([22]; 2000 mg/l): -
- MIC [23]: ≥ 250 µg/mL

Compound: O=S([O-])([O-])=S.[Na+].[Na+] [Sodium thiosulfate, sodium thiosulfate]
- Growth ([16]; 3.125 mg/ml (so in the source)): +
- Growth ([16]; 6.25 mg/ml (so in the source)): +
- Growth ([16]; 12.5 mg/ml (so in the source)): ++
- Growth ([16]; 25 mg/ml (so in the source)): +++
- Growth ([16]; 50 mg/ml (so in the source)): +++
- Growth ([16]; 100 mg/ml (so in the source)): +++
- Growth ([17]; 3.125 mg/l): ±
- Growth ([17]; 6.25 mg/l): ±
- Growth ([17]; 12.5 mg/l): ±
- Growth ([17]; 25 mg/l): +
- Growth ([17]; 50 mg/l): ++
- Growth ([17]; 100 mg/l): +++
- Growth ([18]; 3.125 mg/ml (so in the source)): +++
- Growth ([18]; 6.25 mg/ml (so in the source)): +++
- Growth ([18]; 12.5 mg/ml (so in the source)): +++
- Growth ([18]; 25 mg/ml (so in the source)): +++
- Growth ([18]; 50 mg/ml (so in the source)): +++
- Growth ([18]; 100 mg/ml (so in the source)): +++
- Growth ([19]; 3.125 mg/l): +++
- Growth ([19]; 6.25 mg/l): +++
- Growth ([19]; 12.5 mg/l): +++
- Growth ([19]; 25 mg/l): +++
- Growth ([19]; 50 mg/l): +++
- Growth ([19]; 100 mg/l): +++
- Growth ([20]; 3.125 mg/l): +
- Growth ([20]; 6.25 mg/l): ++
- Growth ([20]; 12.5 mg/l): ++
- Growth ([20]; 25 mg/l): +++
- Growth ([20]; 50 mg/l): +++
- Growth ([20]; 100 mg/l): +++
